This note sets out measurements from US20020016330A1, “Materials and methods for killing nematodes and nematode eggs” (priority 2000, published 2002).

A value given as a limit tells only on which side of the number the result lay.

For assay [1], the system named is Caenorhabditis elegans. The experiment in a line: C. elegans L1 nematicidal dose response, 5 day visual viability score (3-fold dilutions). Format: in vivo. The note with it: for 5 Day Visual Score V4: 2.6 μM; for 5 Day Visual Score V5: 0.9 μM; for 5 Day Visual Score V3: 7.8 μM; for 5 Day Visual Score V2: 23.3 μM; for 5 Day Visual Score V1: 70 μM; for 5 Day Visual Score V6: 0.3 μM. Details: key: Dead: only stiff L1s (no movement); Dead (L4): worms are dead, but at a later larval stage; majority of worms are L1 (based on size); majority of worms are L2 (based on size); majority of worms are L3 (based on size); majority of worms are L4 (based on size); AD: majority of worms are adult; #AD: 5 adult worms or less; B!: sterile (0-25 progeny); B: low broodsize (25-100 progeny); ˜B: moderate broodsize (100-250 progeny); <: reduced broodsize (250-500 progeny); OK: no effect (˜1000+ progeny). On the procedure:
Caenorhabditis elegans adults were grown on Nematode Growth Medium (NGM) until they produced eggs, then the adults were removed.
The eggs were allowed to hatch, and the L1 larvae collected. See The Nematode Caenorhabditis elegans (1988) Cold Spring Harbor Laboratory Press. Using a Matrix Programmable Pipette, the L1s were distributed into 96-well tissue culture plates, 20 L1 in 50 μl NGM per well. Antibiotic/Antimyotic was added to each well, and 1% by weight E. coli strain HB101. The subject anthelmintic compounds were stored at 5 mM in 100% DMSO. 0.7 μl of compounds 1-31 were added to the left-most column of wells to yield a final concentration of 70 μM in 1.4% DMSO, with 1.4% DMSO only as the control. The compounds were then subjected to 5 more 3-fold dilutions from left to right to yield 6 column concentrations of 70 μM, 23.3 μM, 7.8 μM, 2.6 μM, 0.9 μM, and 0.3 μM. Plates were stored in air-tight Rubbermaid plastic boxes at 20° C. The nematodes had cleared all control wells by day 4, and nematode viability was scored by visual examination under a 100× dissecting microscope on day 5. A visual viability scoring system was used as follows:
Column VI has a compound concentration of 70 μM with sequential 3-fold dilutions reported in columns V2, V3, V4, V5, and V6, respectively, such that the V6 concentration was 0.3 μM.
(§1) The nematicidal activity of anthelmintic Compositions 48-68 were determined in accordance with the procedure outlined in Example 2.

In assay [2] the test system is Caenorhabditis elegans. The experiment in a line: Initial HTS Run (mOD, % Run, visual score). The note with it: in vivo. On the procedure: as §1
For assay [3], the system named is Caenorhabditis elegans. In words: Follow-up HTS Run (mOD, % Run, visual score). The note with it: in vivo. On the procedure: as §1
Setting [4] is: Table 3, procedure of Example 2.

`CCCCOc1ccc(C(=O)N2CC(OCCCc3ccccc3)CC2C(=O)NCc2ccccc2Br)cc1` (centres unmarked) [AKC 102]: the “5 Day Visual Score V4” value with Caenorhabditis elegans [1] (scored day 5) was “L3”.
On to `CCCCOc1ccc(-c2noc(C3CCC(NC(=O)c4ccc5c(c4)OCO5)CC3)n2)cc1` (centres unmarked) [AKC 103], for which, in the assay with Caenorhabditis elegans [1] (scored day 5), the “5 Day Visual Score V5” value is listed as “L4/#AD/B”, the “5 Day Visual Score V3” value is “Dead(L4)” and the “5 Day Visual Score V2” value is on record as “Dead(L3/L4”.
`CCOc1ccccc1C1=NOC(c2cccc3ccccc23)C1C(=O)NCc1ccc(OC(F)(F)F)cc1` (centres unmarked) [AKC 105]: in the assay with Caenorhabditis elegans [1] (scored day 5), the “5 Day Visual Score V5” value was “L2/Dead(L”, the “5 Day Visual Score V4” value is “L2/Dead(L”, the “5 Day Visual Score V3” value is “L2/Dead(L3)” and the “5 Day Visual Score V2” value is given as “L2/Dead(L3)”. The “5 Day Visual Score V1” value in the assay on Caenorhabditis elegans [1] (scored day 5) is listed as “L2/Dead(L3)”.
Regarding `O=C(Nc1ccc(OC(F)(F)F)cc1)NC1CCC(c2nc(-c3ccccc3)no2)CC1` (centres unmarked) [AKC 107], in the assay on Caenorhabditis elegans [1] (scored day 5), the “5 Day Visual Score V6” value is on record as “L2/Dead(L”, the “5 Day Visual Score V4” value is recorded as “Dead(L4)”, the “5 Day Visual Score V2” value is on record as “Dead(L2/L3)” and the “5 Day Visual Score V1” value is “Dead”.
`O=C(Nc1ccc(Br)cc1)N1CCC(c2nc(-c3ccccc3)no2)CC1` [AKC 108]: in the assay on Caenorhabditis elegans [1] (scored day 5), the “5 Day Visual Score V4” value is on record as “L1”, the “5 Day Visual Score V3” value is listed as “L1”, the “5 Day Visual Score V2” value was “Dead” and the “5 Day Visual Score V1” value is given as “Dead”.
Turning to `O=C(NCCc1ccccc1F)C1C(c2ccccc2Cl)=NOC1c1ccc(-c2ccccc2)cc1` (centres unmarked) [AKC 110], in the assay on Caenorhabditis elegans [1] (scored day 5), the “5 Day Visual Score V6” value is “L1”, the “5 Day Visual Score V5” value was “L1”, the “5 Day Visual Score V4” value was “L1” and the “5 Day Visual Score V3” value is “L1”. Moreover, in the assay with Caenorhabditis elegans [1] (scored day 5), the “5 Day Visual Score V2” value is listed as “L1” and the “5 Day Visual Score V1” value is “L1”.
As to `COc1ccccc1-c1noc(C(C)CNC(=O)Nc2ccc(OC(F)(F)F)cc2)n1` (centres unmarked) [AKC 111], in the assay with Caenorhabditis elegans [1] (scored day 5), the “5 Day Visual Score V6” value is “OK (no effect (˜1000+ progeny))”, the “5 Day Visual Score V4” value is recorded as “Dead(L3/L”, the “5 Day Visual Score V3” value is given as “L2” and the “5 Day Visual Score V2” value is listed as “Dead”. Besides, the “5 Day Visual Score V1” value in the assay on Caenorhabditis elegans [1] (scored day 5) is on record as “Dead”.
As to `Cc1ccc(-c2noc(C3CCC(CNC(=O)Nc4ccc(OC(F)(F)F)cc4)CC3)n2)cc1C` (centres unmarked) [AKC 112], in the assay on Caenorhabditis elegans [1] (scored day 5), the “5 Day Visual Score V6” value is listed as “OK (no effect (˜1000+ progeny))” and the “5 Day Visual Score V5” value is “#AD/˜B”.
Take `O=C(NCC1CCC(c2nc(-c3ccccc3)no2)CC1)Nc1ccc(OC(F)(F)F)cc1` (centres unmarked) [AKC 113]: in the assay with Caenorhabditis elegans [1] (scored day 5), the “5 Day Visual Score V6” value is given as “L4/#AD/B”, the “5 Day Visual Score V4” value is “Dead(L2/L”, the “5 Day Visual Score V3” value is recorded as “Dead” and the “5 Day Visual Score V2” value is “Dead”. For the same compound, the “5 Day Visual Score V1” value in the assay on Caenorhabditis elegans [1] (scored day 5) was “Dead”.
Turning to `O=C(Nc1ccc(Br)cc1)NC1CCC(c2nc(-c3ccccc3)no2)CC1` (centres unmarked) [AKC 114], in the assay on Caenorhabditis elegans [1] (scored day 5), the “5 Day Visual Score V4” value is “L3/Dead(L”, the “5 Day Visual Score V3” value is on record as “L3”, the “5 Day Visual Score V2” value is “L3/Dead(L4)” and the “5 Day Visual Score V1” value is given as “Dead”.
`O=C(NCCCCCc1nc(-c2ccccc2)no1)Nc1ccc(OC(F)(F)F)cc1` [AKC 115]: in the assay with Caenorhabditis elegans [1] (scored day 5), the “5 Day Visual Score V5” value is recorded as “Dead(L2/L”, the “5 Day Visual Score V4” value is given as “Dead(L2)”, the “5 Day Visual Score V3” value was “L2/Dead(L2)” and the “5 Day Visual Score V2” value is given as “Dead(L2/L3)”. Also, the “5 Day Visual Score V1” value in the assay with Caenorhabditis elegans [1] (scored day 5) is on record as “Dead”.
As for `CC(C)(C)C1=NOC(c2ccc(-c3ccccc3)cc2)C1C(=O)NCCc1ccccc1F` (centres unmarked) [AKC 120], in the assay on Caenorhabditis elegans [1] (scored day 5), the “5 Day Visual Score V6” value is on record as “OK (no effect (˜1000+ progeny))”, the “5 Day Visual Score V5” value is “#AD/˜B”, the “5 Day Visual Score V3” value was “L1” and the “5 Day Visual Score V1” value is “L1”.
As for `COc1ccc(C2=NOC(c3ccc(-c4ccccc4)cc3)C2C(=O)NCCc2ccccc2F)cc1` (centres unmarked) [AKC 121], in the assay with Caenorhabditis elegans [1] (scored day 5), the “5 Day Visual Score V4” value was “#AD/˜B”, the “5 Day Visual Score V2” value was “L1” and the “5 Day Visual Score V1” value is reported as “L1”.
With `CCOc1ccc(C2ON=C(c3ccc(F)cc3)C2C(=O)NCCc2ccc(F)cc2)cc1` (centres unmarked) [AKC 122], in the assay on Caenorhabditis elegans [1] (scored day 5), the “5 Day Visual Score V6” value is listed as “OK (no effect (˜1000+ progeny))”, the “5 Day Visual Score V2” value is “L1” and the “5 Day Visual Score V1” value is “Dead”.
With `CCOc1ccc(C2ON=C(c3ccc(N(C)C)cc3)C2C(=O)NCCc2ccc(F)cc2)cc1` (centres unmarked) [AKC 123], in the assay on Caenorhabditis elegans [1] (scored day 5), the “5 Day Visual Score V6” value is reported as “#AD/˜B” and the “5 Day Visual Score V1” value was “L1”.
For the compound `CCOc1cccc(C2ON=C(c3ccccc3OCC)C2C(=O)NCCc2ccc(OC)c(OCC)c2)c1` (centres unmarked) [AKC 124], in the assay with Caenorhabditis elegans [1] (scored day 5), the “5 Day Visual Score V6” value is listed as “L4/#AD/B”, the “5 Day Visual Score V5” value is “L4/#AD/B” and the “5 Day Visual Score V4” value is on record as “L4/#AD/B”.
For `CCOc1cccc(C2ON=C(c3ccccc3OCC)C2C(=O)NCc2ccc(OC(F)(F)F)cc2)c1` (centres unmarked) [AKC 125], in the assay with Caenorhabditis elegans [1] (scored day 5), the “5 Day Visual Score V4” value is recorded as “L2”, the “5 Day Visual Score V3” value is “L2”, the “5 Day Visual Score V2” value is listed as “L2/Dead(L4)” and the “5 Day Visual Score V1” value is listed as “L2/Dead(L3)”.
For the compound `CCCCOc1ccc(C(=O)N2CC(OCCCc3ccccc3)CC2C(=O)NCc2ccccc2OC)cc1` (centres unmarked) [AKC 126], in the assay with Caenorhabditis elegans [1] (scored day 5), the “5 Day Visual Score V6” value was “#AD/˜B” and the “5 Day Visual Score V4” value is reported as “#AD/˜B”.
Regarding `Cc1ccc(C(CC(=O)c2ccccc2)Nc2ccc(I)cc2)o1` (centres unmarked) [AKC 128], in the assay with Caenorhabditis elegans [1] (scored day 5), the “5 Day Visual Score V6” value is “OK (no effect (˜1000+ progeny))”, the “5 Day Visual Score V5” value was “#AD/˜B”, the “5 Day Visual Score V4” value is “L1” and the “5 Day Visual Score V3” value was “Dead”. In addition, in the assay on Caenorhabditis elegans [1] (scored day 5), the “5 Day Visual Score V2” value is on record as “Dead” and the “5 Day Visual Score V1” value was “Dead”.
As for `Cc1ccc(C(CC(=O)c2ccccc2)Nc2ccc(I)cc2F)o1` (centres unmarked) [AKC 129], in the assay with Caenorhabditis elegans [1] (scored day 5), the “5 Day Visual Score V5” value is reported as “OK (no effect (˜1000+ progeny))”, the “5 Day Visual Score V2” value is reported as “Dead” and the “5 Day Visual Score V1” value is “Dead”.
On to `CCC(=O)C(C)C(Nc1cc(Br)c(C)c(Br)c1)c1ccc(C)o1` (centres unmarked) [AKC 131], for which, in the assay on Caenorhabditis elegans [1] (scored day 5), the “5 Day Visual Score V5” value is on record as “#AD/˜B”, the “5 Day Visual Score V4” value is “#AD/˜B”, the “5 Day Visual Score V3” value was “#AD/˜B” and the “5 Day Visual Score V2” value was “L1”. Besides, in the assay on Caenorhabditis elegans [1] (scored day 5), the “5 Day Visual Score V1” value is on record as “Dead”.
Turning to `CCCc1ccc(C(Nc2ccc(-c3ccccc3)cc2)C2CCCCC2=O)cc1` (centres unmarked) [AKC 132], in the assay with Caenorhabditis elegans [1] (scored day 5), the “5 Day Visual Score V6” value is “Dead”, the “5 Day Visual Score V3” value is reported as “Dead”, the “5 Day Visual Score V2” value is reported as “Dead” and the “5 Day Visual Score V1” value is listed as “Dead(L2)”.
As to `Fc1ccc(N2CCN(c3nc(NCc4ccc(C(F)(F)F)cc4)ns3)CC2)cc1` [AKC 135], in the assay with Caenorhabditis elegans [1] (scored day 5), the “5 Day Visual Score V2” value was “L1” and the “5 Day Visual Score V1” value was “Dead”.
As for `CC(C)(C)c1csc(NC(=O)Cc2cn(Cc3ccccc3Cl)c3ccc(Cl)cc23)n1` [AKC 157], in the assay with Caenorhabditis elegans [1] (setting [4]), the “5 Day Visual Score V6” value is “OK (no effect (˜1000+ progeny))”, the “5 Day Visual Score V5” value is recorded as “OK (no effect (˜1000+ progeny))”, the “5 Day Visual Score V4” value was “< (reduced broodsize (250-500 progeny))” and the “5 Day Visual Score V3” value is given as “< (reduced broodsize (250-500 progeny))”. Moreover, the “5 Day Visual Score V2” value in the assay with Caenorhabditis elegans [1] (setting [4]) is “OK (no effect (˜1000+ progeny))”. Moreover, in the assay on Caenorhabditis elegans [2], the “Initial HTS Run % Run” value stood at 98% and the “Initial HTS Run mOD” value is recorded as 120 mOD. In the assay with Caenorhabditis elegans [3], the “Follow-up HTS Run % Run” value came to 108% and the “Follow-up HTS Run mOD” value was 174 mOD.
As for `CCC1CCCCN1c1cc(Oc2ccc3oc4ccccc4c3c2)ncn1` (centres unmarked) [AKC 340], in the assay with Caenorhabditis elegans [1] (scored day 5), the “5 Day Visual Score V2” value is on record as “L1” and the “5 Day Visual Score V1” value is recorded as “L1”.
As for `O=C(NCCc1ccccc1F)C1C(c2ccc(F)cc2)=NOC1c1ccc(-c2ccccc2)cc1` (centres unmarked) [AKC 2153], in the assay on Caenorhabditis elegans [1] (scored day 5), the “5 Day Visual Score V2” value is “L1” and the “5 Day Visual Score V1” value is “L1”.
